These compounds were tested against T1, Recombinant human CBP containing the bromodomain (CBP-BD (1043-1159)) (Homo sapiens, UniProt Q92793) (assay: CBP Alphascreen binding assay). Conditions: read-out: CREBBP (CBP) IC50.
T1 construct: Recombinant human CBP bromodomain (CBP-BD (1043-1159)); made in house; host or cells: E. coli BL21-CodonPlus (DE3), modified pET vector
In short: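 Buffer: 50 mM HEPES pH 7.5, 50 mM NaCl, 0.01% BSA, 0.01% Triton X-100, 2 mM DTT. The signal was normalised to plate controls and fitted with a four-parameter curve to give IC50.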

T1 sequence (Q92793 1081-1197): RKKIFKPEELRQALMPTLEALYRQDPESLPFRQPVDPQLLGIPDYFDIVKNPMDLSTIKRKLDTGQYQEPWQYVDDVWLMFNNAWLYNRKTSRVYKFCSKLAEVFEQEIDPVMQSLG

SMILES	IC50 [nM]
Cc1noc(C)c1-c1cnc2c(-c3cc(C(=O)O)ccc3Cl)cn(C(C)(c3ccccn3)c3ccccn3)c2c1 [P-0164, 4-chloro-3-(1-(1,1-di(pyridin-2-yl)ethyl)-6-(3,5-dimethylisoxazol-4-yl)-1H-pyrrolo[3,2-b]pyridin-3-yl)benzoic acid]	0.1 to 1000
CCOc1cc(C(=O)O)cc(OCC)c1-n1cc(C(O)(C2CC2)C2CC2)c2ncc(-c3c(C)noc3C)cc21 [P-0165, 4-(3-(dicyclopropyl(hydroxy)methyl)-6-(3,5-dimethylisoxazol-4-yl)-1H-pyrrolo[3,2-b]pyridin-1-yl)-3,5-diethoxybenzoic acid]	0.1 to 1000
Cc1noc(C)c1-c1cnc2c(-c3cc(C(=O)O)ccc3C#N)cn(C(C)(c3ccccn3)c3ccccn3)c2c1 [P-0166, 4-cyano-3-(1-(1,1-di(pyridin-2-yl)ethyl)-6-(3,5-dimethylisoxazol-4-yl)-1H-pyrrolo[3,2-b]pyridin-3-yl)benzoic acid]	0.1 to 1000
C#Cc1ccccc1-c1cn(C(C)(c2ccccn2)c2ccccn2)c2cc(-c3c(C)noc3C)cnc12 [P-0167, 4-(1-(1,1-di(pyridin-2-yl)ethyl)-3-(2-ethynylphenyl)-1H-pyrrolo[3,2-b]pyridin-6-yl)-3,5-dimethylisoxazole]	0.1 to 1000
CCOc1cc(C(=O)O)cc(OCC)c1-n1cc(-c2ccccc2)c2ncc(-c3c(C)noc3C)cc21 [P-0168, 4-(6-(3,5-dimethylisoxazol-4-yl)-3-phenyl-1H-pyrrolo[3,2-b]pyridin-1-yl)-3,5-diethoxybenzoic acid]	0.1 to 1000
Cc1noc(C)c1-c1cnc2c(-c3ccccc3C#N)cn(C(C)(c3ccccn3)c3ccccn3)c2c1 [P-0169, 2-(1-(1,1-di(pyridin-2-yl)ethyl)-6-(3,5-dimethylisoxazol-4-yl)-1H-pyrrolo[3,2-b]pyridin-3-yl)benzonitrile]	0.1 to 1000

Reference: patent US11446287B2, “Compounds and methods for EP300 or CBP modulation and indications therefor” (Opna Immuno-Oncology SA, priority 2019, dated 2022)
